In PubChem BioAssay AID330 (DTP/NCI, 2004):
Where “and” joins values, the source holds several entries; their conditions need not be identical. Equal values may be shown once. Toxic doses and inconclusive results are not listed. Rule for the calls: active = survival T/C of 150% or more; inactive = T/C below 125% in these data.

Test system: P388 leukemia ip, CD2F1 mice, survival T/C
Assay: NCI In Vivo Anticancer Drug Screen. Data for tumor model P388 Leukemia (intraperitoneal) in CD2F1 (CDF1) mice
Details: endpoint: median survival time, higher = longer survival
Outline: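 Mice carrying the transplanted tumor received test compound or vehicle. Survival was recorded in each group, and the value is the treated-group measurement divided by that of the vehicle-treated control group.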

[1] = dose: 50.0 mg/kg/injection, schedule: Q01DX005 (ip), vehicle: saline with Tween-80
[2] = dose: 100.0 mg/kg/injection, schedule: Q01DX005 (ip), vehicle: saline with Tween-80
[3] = dose: 200.0 mg/kg/injection, schedule: Q01DX005 (ip), vehicle: saline with Tween-80
[4] = dose: 50.0 mg/kg/injection, schedule: Q01DX005 (ip), vehicle: Klucel (hydroxypropylcellulose) (HPC)
[5] = dose: 100.0 mg/kg/injection, schedule: Q01DX005 (ip), vehicle: Klucel (hydroxypropylcellulose) (HPC)
[6] = dose: 200.0 mg/kg/injection, schedule: Q01DX005 (ip), vehicle: Klucel (hydroxypropylcellulose) (HPC)
[7] = dose: 100.0 mg/kg/injection, schedule: Q01DX009 (ip), vehicle: saline with Tween-80
[8] = dose: 200.0 mg/kg/injection, schedule: Q01DX009 (ip), vehicle: saline with Tween-80
[9] = dose: 60.0 mg/kg/injection, schedule: Q01DX005 (ip), vehicle: saline
[10] = dose: 120.0 mg/kg/injection, schedule: Q01DX005 (ip), vehicle: saline
[11] = dose: 240.0 mg/kg/injection, schedule: Q01DX005 (ip), vehicle: saline
[12] = dose: 50.0 mg/kg/injection, schedule: Q01DX009 (ip), vehicle: Klucel (hydroxypropylcellulose) (HPC)
[13] = dose: 100.0 mg/kg/injection, schedule: Q01DX009 (ip), vehicle: Klucel (hydroxypropylcellulose) (HPC)
[14] = dose: 200.0 mg/kg/injection, schedule: Q01DX009 (ip), vehicle: Klucel (hydroxypropylcellulose) (HPC)
[15] = dose: 50.0 mg/kg/injection, schedule: Q01DX009 (ip), vehicle: saline with Tween-80

Measured: T/C

c1cc2nc(-c3ccc4oc(C5=NCCN5)cc4c3)[nH]c2cc1C1=NCCN1
inactive: dose: 12.5 mg/kg/injection, schedule: Q01DX005 (ip), vehicle: saline 98 % of control | dose: 25.0 mg/kg/injection, schedule: Q01DX005 (ip), vehicle: saline 113 % of control | dose: 50.0 mg/kg/injection, schedule: Q01DX005 (ip), vehicle: saline 113 % of control and 118 % of control

CCOCCC(=O)NCC(=O)NC1C(C)OC(Nc2ncnc3nc[nH]c23)C(O)C1O (stereo not drawn)
inactive: dose: 3.12 mg/kg/injection, schedule: Q01DX009 (ip), vehicle: water 94 % of control | dose: 6.25 mg/kg/injection, schedule: Q01DX009 (ip), vehicle: water 100 % of control | dose: 12.5 mg/kg/injection, schedule: Q01DX009 (ip), vehicle: water 96 % of control | dose: 25.0 mg/kg/injection, schedule: Q01DX009 (ip), vehicle: water 116 % of control | dose: 50.0 mg/kg/injection, schedule: Q01DX009 (ip), vehicle: water 100 % of control

CCOC(=O)C(/C=N/NC(N)=S)CC (stereo not drawn)
inactive: dose: 100.0 mg/kg/injection, schedule: Q01DX001 (ip), vehicle: saline with Tween-80 100 % of control | dose: 200.0 mg/kg/injection, schedule: Q01DX001 (ip), vehicle: saline with Tween-80 99 % of control | dose: 400.0 mg/kg/injection, schedule: Q01DX001 (ip), vehicle: saline with Tween-80 97 % of control

Cn1cnc2c(NCCO)ncnc21
inactive: [1] 118 % of control | [2] 100 % of control | [3] 103 % of control

COc1ccc2nc3cc(Cl)ccc3c(NCCCCNc3c4ccc(Cl)cc4nc4ccc(OC)nc34)c2n1
inactive: dose: 100.0 mg/kg/injection, schedule: Q04DX003 (ip), vehicle: saline with Tween-80 102 % of control | dose: 200.0 mg/kg/injection, schedule: Q04DX003 (ip), vehicle: saline with Tween-80 118 % of control

Cc1nc2c([N+](=O)[O-])c(N3CCCCC3)c([N+](=O)[O-])cc2[nH]1
inactive: dose: 100.0 mg/kg/injection, schedule: Q04DX002 (ip), vehicle: saline with Tween-80 101 % of control | dose: 200.0 mg/kg/injection, schedule: Q04DX002 (ip), vehicle: saline with Tween-80 104 % of control

O=C(NCN1CCCCC1)c1ccccc1
inactive: dose: 25.0 mg/kg/injection, schedule: Q01DX005 (ip), vehicle: saline with Tween-80 93 % of control and 95 % of control | [1] 98 % of control and 101 % of control and 105 % of control | [2] 102 % of control and 104 % of control | [3] 102 % of control and 113 % of control

CC1CCC2(C)OC1OC2CN (stereo not drawn)
inactive: [1] 100 % of control | [2] 99 % of control | [3] 100 % of control

CN1CC(C(=O)NC2(C)OC3(O)C4CCCN4C(=O)C(Cc4ccccc4)N3C2=O)C=C2c3cccc4[nH]cc(c34)CC21 (stereo not drawn)
inactive: [4] 91 % of control | [5] 87 % of control | [6] 102 % of control

ClC(Cl)(Cl)C(N1CCN(c2ccccc2)CC1)N1CCN(c2ccccc2)CC1
inactive: [7] 101 % of control | [8] 101 % of control | dose: 400.0 mg/kg/injection, schedule: Q01DX009 (ip), vehicle: saline with Tween-80 106 % of control | dose: 600.0 mg/kg/injection, schedule: Q01DX009 (ip), vehicle: saline with Tween-80 100 % of control

CCC(=O)[C@]1(O)Cc2c(O)c3c(c(O)c2[C@@H](OC2CC(N)C(O)C(C)O2)C1)C(=O)c1c(OC)cccc1C3=O (stereo partly drawn)
inactive: dose: 3.13 mg/kg/injection, schedule: Q04DX003 (ip), vehicle: water 102 % of control | dose: 6.25 mg/kg/injection, schedule: Q04DX003 (ip), vehicle: water 112 % of control | dose: 12.5 mg/kg/injection, schedule: Q04DX003 (ip), vehicle: water 119 % of control | dose: 25.0 mg/kg/injection, schedule: Q04DX003 (ip), vehicle: water 119 % of control | dose: 50.0 mg/kg/injection, schedule: Q04DX003 (ip), vehicle: water 110 % of control

BrCOCCCCOCBr
inactive: [9] 114 % of control | [10] 101 % of control | [11] 108 % of control

CCCCCCCCC1OC1CCCCCCCC(=O)O (stereo not drawn)
inactive: dose: 3.13 mg/kg/injection, schedule: Q01DX009 (ip), vehicle: saline with Tween-80 112 % of control | dose: 6.25 mg/kg/injection, schedule: Q01DX009 (ip), vehicle: saline with Tween-80 100 % of control | dose: 12.5 mg/kg/injection, schedule: Q01DX009 (ip), vehicle: saline with Tween-80 103 % of control | dose: 25.0 mg/kg/injection, schedule: Q01DX009 (ip), vehicle: saline with Tween-80 95 % of control

CC1(C)C=C(C(=O)ON2C(=O)CCC2=O)C(C)(C)N1O
inactive: [12] 113 % of control | [13] 106 % of control

CC(=O)OC1CCC2(C)C(CCC3C2CCC2(C)C3CC(CC(=O)O)C2OC(C)=O)C1 (stereo not drawn)
inactive: dose: 25.0 mg/kg/injection, schedule: Q01DX009 (ip), vehicle: Klucel (hydroxypropylcellulose) (HPC) 92 % of control | [12] 92 % of control | [13] 93 % of control | [14] 97 % of control

CCOC(=O)CC(C)=NCCN=C(C)CC(=O)OCC
inactive: [15] 104 % of control | [7] 106 % of control | [8] 111 % of control

CCCC1CC2=C(C(=O)c3c(OC)cccc3C2=O)C(O)(C(F)(F)F)O1 (stereo not drawn)
inactive: dose: 100.0 mg/kg/injection, schedule: Q01DX001 (ip), vehicle: Klucel (hydroxypropylcellulose) (HPC) 103 % of control | dose: 200.0 mg/kg/injection, schedule: Q01DX001 (ip), vehicle: Klucel (hydroxypropylcellulose) (HPC) 109 % of control | dose: 400.0 mg/kg/injection, schedule: Q01DX001 (ip), vehicle: Klucel (hydroxypropylcellulose) (HPC) 94 % of control

CC12CN3CC(C)(C1=O)C(=O)C(C)(C3)C2=O
inactive: [9] 94 % of control | [10] 92 % of control | [11] 94 % of control

O=C(NC(CCS(=O)(=O)NCc1ccc(S(=O)(=O)F)cc1)C(=O)OCc1ccccc1)OCc1ccccc1 (stereo not drawn)
inactive: dose: 12.5 mg/kg/injection, schedule: Q01DX009 (ip), vehicle: other 90 % of control | dose: 25.0 mg/kg/injection, schedule: Q01DX009 (ip), vehicle: other 89 % of control | dose: 100.0 mg/kg/injection, schedule: Q01DX009 (ip), vehicle: other 102 % of control | dose: 200.0 mg/kg/injection, schedule: Q01DX009 (ip), vehicle: other 98 % of control

COc1ccc(CCN=C(C)c2cc(Cl)cc(Cl)c2O)cc1OC
inactive: [4] 104 % of control | [5] 102 % of control | [6] 95 % of control

CCOC(=O)C1(C)C(=O)CC2c3nc4ccccc4cc3CN2C1=O (stereo not drawn)
inactive: [13] 95 % of control | [14] 95 % of control | dose: 400.0 mg/kg/injection, schedule: Q01DX009 (ip), vehicle: Klucel (hydroxypropylcellulose) (HPC) 104 % of control

O=C(O)CC(=O)Nc1ccccc1S
inactive: [15] 102 % of control | [7] 90 % of control | [8] 101 % of control

O=C1c2ccccc2C(=O)C1C(=Nc1ccc(F)cc1)c1ccccc1
inactive: [4] 103 % of control | [5] 103 % of control | [6] 99 % of control

CC1(C)Cc2[nH]c3ccccc3c2C(C)(C)N1
inactive: dose: 60.0 mg/kg/injection, schedule: Q01DX005 (ip), vehicle: saline with Tween-80 105 % of control and 99 % of control | dose: 120.0 mg/kg/injection, schedule: Q01DX005 (ip), vehicle: saline with Tween-80 100 % of control | dose: 240.0 mg/kg/injection, schedule: Q01DX005 (ip), vehicle: saline with Tween-80 91 % of control
